Data taken from patent US11135214B2, “Methods for enhancing the bio availability and exposure of a voltage-gated potassium channel opener” (priority 2018, dated 2021).
“And” between values parts separate entries of the source, which are not always exact repeats. Identical values can stand only once. “Also recorded” adds a separate entry of the source.

Experiments:
[1] = Open-label randomized two-period fed/fasted crossover study, plasma PK; settings: human, in vivo
Text: The study consisted of two Treatment Periods, Period 1 and Period 2. Each Treatment Period consisted of 7 days, with the dosing of Compound A occurring on Day 1. The two treatment periods were separated by a washout period of 10 days. The subjects were randomized into two groups. During Treatment Period 1, one group received an oral dose of Compound A while fasted and the other group received an oral dose of Compound A when fed. The group which fasted in Treatment Period 1 was fed in Treatment Period 2 and vice versa.
On Day 1 of each Treatment Period, each subject orally received 20 mg of Compound A (4 capsules with 5 mg of Compound A in each capsule).
During the fed period, following an overnight fast of at least 10 hours, a standard high fat, high calorie breakfast was given as per FDA guidance; the breakfast was given 30 minutes prior to the scheduled dosing time, and was completed 10 minutes before dosing. A representative breakfast included 2 slices of buttered toast, 2 fried eggs, 2 strips of bacon, 4 oz. of hash brown potatoes, and 8 oz. of whole milk.
During the fasted period, dosing occurred after an overnight fast of at least 10 hours. No food was allowed for 4 hours post-dose in either the fed or fasted period. Water was allowed as desired except for one hour before and after dosing.
For all subjects, blood samples for the determination of Compound A plasma concentration were collected at dosing (0.0 hours (time zero)) and at 0.5, 1.0, 1.5, 2.0, 3.0, 4.0, 6.0, 8.0, 12.0, 24.0, 32.0, 48.0 and 144.0 hours post-dose.

[2] = test system: corticospinal excitability; experiment: TMS crossover study, TMS-EMG active motor threshold (AMT); type: in vivo, human; settings: for Active Motor Threshold, post-dose change from baseline: individual subjects; for Active Motor Threshold, post-dose change from baseline / Active Motor Threshold, post-dose change from baseline (Mean): single 20 mg dose; for Active Motor Threshold, post-dose change from baseline (Mean): mean of subjects
Method: RMT and AMT values are reported as percentages of maximum stimulator output (% MSO). Drug-induced modulation of TMS-EMG parameters were evaluated over the 3 timepoints (2, 4, and 6 h) and for the timepoint with the highest drug exposure. AMT was recorded while subjects squeezed a manometer at 20% of each individual's maximum contraction force. […] AMT could not be registered for Subjects 912 and 940 at 2 hours after Compound A and placebo intake, respectively.

[3] = test system: GABA-A receptor mediated intracortical inhibition; experiment: TMS crossover study, short-interval intracortical inhibition (SICI); type: in vivo, human; settings: for Short Intracortical Inhibition (Mean Conditioned MEP/Mean Unconditioned MEP): individual subjects; for Short Intracortical Inhibition (Mean Conditioned MEP/Mean Unconditioned MEP) / Short Intracortical Inhibition (Mean Conditioned MEP/Mean Unconditioned MEP), Mean: ISI 2 ms; for Short Intracortical Inhibition (Mean Conditioned MEP/Mean Unconditioned MEP), Mean: mean of subjects
Method: Short-interval intracortical inhibition (SICI) was measured using 15 conditioning-test stimuli pairs given in a random order at an interstimulus interval (ISI) of 2 ms. The conditioning stimulus was set at 80% of AMT and the suprathreshold stimulus 120% RMT. The calculation of SICI utilized custom scripts to measure the amplitudes of conditioned and unconditioned motor evoked potentials (MEPs) and to express SICI as the ratio of mean conditioned MEPs over mean unconditioned MEPs.

cortical excitability = experiment: TMS crossover study, global mean field power (GMFP); type: in vivo, human; settings: 20 mg, pre-dose vs post-dose (FIG. 12)
Text: Additional measures of cortical excitability including global mean field power were similarly impacted.

Cc1cc(N2CCc3cc(F)ccc3C2)cc(C)c1NC(=O)CC(C)(C)C [Compound A, N-[4-(6-fluoro-3,4-dihydro-1H-isoquinolin-2-yl)-2,6-dimethylphenyl]-3,3-dimethylbutanamide]
concentration at 3 h ([1]; both sexes, fed, 20 mg oral, 3.0 h, individual subjects, read-out: Compound A Concentration): 104 ng/mL
Cmax ([1]; both sexes, fed, 20 mg oral, individual subjects): 104 ng/mL
bioavailability and exposure, fed compared to fasted conditions ([1]; po, 20 mg): significantly enhanced
AMT ([2]; 20 mg single dose): increased
change from baseline in AMT vs placebo ([2]; 20 mg, 6 h post-dose, p<0.01): significantly different from placebo
Active Motor Threshold, post-dose change from baseline ([2]; 2 h post-dose): 2 % MSO (3×) and 4 % MSO and 0 % MSO (9×) and 3 % MSO and 1 % MSO (5×)
Active Motor Threshold, post-dose change from baseline ([2]; 4 h post-dose): 2 % MSO (4×) and 4 % MSO and 0 % MSO (9×) and 3 % MSO (4×) and 1 % MSO (2×)
Active Motor Threshold, post-dose change from baseline ([2]; 6 h post-dose): 0 % MSO (4×) and 6 % MSO and 1 % MSO (3×) and 2 % MSO (2×) and 3 % MSO (5×) and 4 % MSO
Active Motor Threshold, post-dose change from baseline (Mean) ([2]; 2 h post-dose): 0.9 % MSO
Active Motor Threshold, post-dose change from baseline (Mean) ([2]; 4 h post-dose): 1.3 % MSO
Active Motor Threshold, post-dose change from baseline (Mean) ([2]; 6 h post-dose): 2.0 % MSO
SICI (mean conditioned MEPs/mean unconditioned MEPs) ([3]; 20 mg single dose): no significant findings; also recorded: lack of an effect on SICI
Short Intracortical Inhibition (Mean Conditioned MEP/Mean Unconditioned MEP) ([3]; 2 h post-dose): 0.71 and 0.72 and 1.29 and 0.91 (2×) and 0.94 and 1.11 and 0.96 and 1.18 and 2.68 and 0.92 (2×) and 0.97 and 1.12 and 1.31 and 1.09 and 1.03 and 0.85 and 0.67
Short Intracortical Inhibition (Mean Conditioned MEP/Mean Unconditioned MEP) ([3]; 4 h post-dose): 1.03 (2×) and 0.93 and 0.54 and 1.20 and 1.68 and 1.64 and 0.86 and 0.61 and 1.01 and 1.53 and 1.04 and 1.17 and 0.89 and 1.27 and 0.87 and 0.75 and 1.07 and 1.02
Short Intracortical Inhibition (Mean Conditioned MEP/Mean Unconditioned MEP), Mean ([3]; 2 h post-dose): 1.07
Short Intracortical Inhibition (Mean Conditioned MEP/Mean Unconditioned MEP), Mean ([3]; 4 h post-dose): 1.06
global mean field power (GMFP) (cortical excitability): reduction of cortical excitability over time
